Where two headings read alike, the source gives them in different places.
How the values were obtained:
[1] = test system: sensitive L1210 Leukämiezellen; assay: Adriamycin uptake in sensitive L1210 cells with and without a lipophilic anthracycline (HPLC/fluorescence); format: cell-based; settings: for Adriamycinaufnahme (in % der unbehandelten Kontrolle ohne Zusatz) L1210: 1 h, 37°C, sensitive L1210
Method: (§1) Zur Bestimmung der Adriamycinaufnahme wurden sensitive oder resistente Zellen (2 x 10⁵/ml) in dem Zellkulturmedium RPMI 1640 für 1h bei 37°C mit Adriamycin in Gegenwart und Abwesenheit eines lipophilen Anthracyclins inkubiert. Die Zellsuspension (5 ml) wurde danach zentrifugiert (1 min, 2000 g), das Zellpellet zweimal mit kalter phosphat-gepufferter Kochsalzlösung gewaschen und anschließend durch Zugabe von 100 µl ^RTriton X-100, 800 µl DNAse (Sigma, FRG) und 100 µl internem Standard (Daunomycin, 1 µg/ml) lysiert. Adriamycin und interner Standard wurden mit Hilfe von mit C18-Alkylresten derivatisiertem Kieselgel gefüllten Säulen (Bondelut C18, Analytichem) angereichert.
(§2) Nach Aktivierung dieser Säulen mit Methanol und Waschen mit doppelt destilliertem Wasser wurden die Proben auf die Säulen gegeben. Anschließend wurde mit doppelt destilliertem Wasser gewaschen und das gebundene Material mit 2 ml Chloroform/Methanol (2:1; v:v) eluiert. Nach dem Abdampfen des Lösungsmittelgemisches unter einem Stickstoffstrom wurden die Rückstände in jeweils 100 µl eines Gemisches aus 3 Teilen Acetonitril und 7 Teilen 20 mmol/l wässriger Phosphorsäure, pH 3 ("mobile Phase") gelöst. Die Auftrennung der Probenbestandteile erfolgte mit Hilfe der Hochdruckflüssigkeitschromatographie (20 µl Probe) über eine mit Nucleosil C18 (Partikelgrüße 5 µm) gefüllte Säule (12.5 x 0.46 cm).
(§3) Zur Detektion wurde ein Fluoreszenzdetektor bei einer Exitations- bzw. Emissionswellenlänge von 495 bzw. 590 nm verwendet. Die quantitative Analyse von Adriamycin erfolgte mit Hilfe eines Integrators durch Bestimmung der Peakflächen unter Berücksichtigung der wiedergefundenen Menge an internem Standard und Vergleich mit Proben, die bekannte Mengen an Adriamycin enthielten.

[2] = test system: resistente L1210 Leukämiezellen; assay: Adriamycin uptake in adriamycin-resistant L1210 cells with and without a lipophilic anthracycline (HPLC/fluorescence); format: cell-based; settings: for Adriamycinaufnahme (in % der unbehandelten Kontrolle ohne Zusatz) resistente L1210: 1 h, 37°C, resistant L1210; for Adriamycin-Aufnahme in adriamycinresistente L1210-Leukämiezellen: result in words, no concentration given
Method: (§4) Die Züchtung von adriamycin-resistenten L1210 Zellen erfolgte durch regelmäßig wiederholte, einstündige Inkubation von sensitiven L1210 Zellen mit steigenden Konzentrationen an Adriamycin bis ein Resistenzgrad (IC₅₀ resistente L1210/IC₅₀ sensitive L1210) gegenüber Adriamycin von etwa 80 erreicht war.
as §1, §2, §3

physchem = format: physicochemical; settings: for logD: octanol/tris buffer
Method: Bestimmung des Oktanol-Wasser-Verteilungskoeffizienten P
Zu 1 ml einer 2-10 µmol/l Lösung der Anthracycline in oktanol-gesättigtem Tris-Puffer, pH 7, wurde 1 ml puffer-gesättigtes Oktanol gegeben und für etwa 1 h bei Raumtemperatur geschüttelt. Die wässrige Phase wurde anschliessend entnommen und die Substanzkonzentration in einem Fluoreszenzphotometer durch Vergleich mit Proben bekannter Konzentration bestimmt. Die Konzentration in der organischen Phase wurde durch Subtraktion der in der wässrigen Phase gefundenen Konzentration von der gesamten eingesetzten Konzentration ermittelt. Der Verteilungskoeffizient wurde berechnet nach der Formel: [formula]

resistente L1210 Zellen = assay: Proliferation test: cytotoxicity on adriamycin-resistant L1210 cells; format: cell-based; settings: resistant line grown by repeated 1 h incubation with rising Adriamycin concentrations
Description: as §4

[3] = test system: nicht resistente L1210 Leukämiezellen; assay: Proliferation test: cytotoxicity of Adriamycin on non-resistant L1210 cells with a lipophilic anthracycline present; format: cell-based; settings: influence of the added lipophilic anthracycline; result in words
[4] = pH 7, statement in text, room temperature (20°C) in b7, read-out: Oktanol-Wasser Verteilungskoeffizient P (converted)
[5] = pH 7, octanol / Tris buffer pH 7, room temperature, * means greater than, read-out: P (converted)

Structure (SMILES) | Adriamycinaufnahme (in % der unbehandelten Kontrolle ohne Zusatz) L1210 ([1]; anthracycline 1 µg/ml) [%] | Adriamycinaufnahme (in % der unbehandelten Kontrolle ohne Zusatz) L1210 ([1]; anthracycline 10 µg/ml) [%] | Adriamycinaufnahme (in % der unbehandelten Kontrolle ohne Zusatz) resistente L1210 ([2]; anthracycline 1 µg/ml) [%] | Adriamycinaufnahme (in % der unbehandelten Kontrolle ohne Zusatz) resistente L1210 ([2]; anthracycline 10 µg/ml) [%] | Oktanol-Wasser Verteilungskoeffizient P (physchem; room temperature (20°C) in b7) | Adriamycin-Aufnahme in adriamycinresistente L1210-Leukämiezellen [2] | logD (physchem; [4]) | logD (physchem; [5]) | also measured
CCCCCCN(C)[C@H]1C[C@H](O[C@H]2C[C@](O)(CC)[C@H](O)c3c(O)c4c(c(O)c32)C(=O)c2c(O)cccc2C4=O)O[C@@H](C)[C@H]1O [3'-N-Hexyl-3'-N-methyl-7-O-alpha-L-Daunosaminyl-ß-rhodomycinon] | 97 | 97 | 197 | 197 |  |  |  |  | 
CC[C@@]1(O)C[C@H](O)c2c(O)c3c(c(O)c2[C@H]1C(=O)OC)C(=O)c1c(O)ccc(O)c1C3=O [epsilon-iso-Rhodomycinon] | 90 | 87 | 146 | 144 | > 100 | vergleichbare |  |  | 
COc1cccc2c1C(=O)c1c(O)c3c(c(O)c1C2=O)C[C@@](O)(C(=O)CO)C[C@@H]3O[C@H]1C[C@H](N)[C@H](O)[C@H](C)O1 [Doxorubicin] |  |  |  |  |  |  | < 1 |  | Resistenzgrad (IC₅₀ resistente L1210/IC₅₀ sensitive L1210) (resistente L1210 Zellen): ~80
CC[C@@]1(O)C[C@H](O)c2c(O)c3c(c(O)c2[C@H]1C(=O)OC)C(=O)c1cccc(O)c1C3=O [epsilon-Rhodomycinon] |  |  |  |  |  |  |  | > 3 | 
CCCCCN(C)[C@H]1C[C@H](O[C@H]2C[C@](O)(CC)[C@H](O)c3c(O)c4c(c(O)c32)C(=O)c2c(O)cccc2C4=O)O[C@@H](C)[C@H]1O [3'-N-Pentyl-3'-N-methyl-7-O-alpha-L-Daunosaminyl-ß-rhodomycinon] | 87 | 95 | 166 | 209 |  |  |  |  | 
COc1cccc2c1C(=O)c1c(O)c3c(c(O)c1C2=O)C[C@@](O)(C(C)=O)C[C@@H]3O[C@H]1C[C@H](N)[C@H](O)[C@H](C)O1 [Daunomycin] |  |  |  |  |  |  | < 1 | 0.653 | 
CC[C@@]1(O)C[C@H](O)c2c(O)c3c(c(O)c2[C@H]1O)C(=O)c1cccc(O)c1C3=O [ß-Rhodomycinon] | 96 | 96 | 116 | 186 | > 100 | vergleichbare |  |  | 
CC[C@@]1(O)C[C@H](O[C@H]2C[C@H](N(C)C)[C@H](O[C@H]3C[C@H](O)[C@H](O[C@H]4CCC(=O)[C@H](C)O4)[C@H](C)O3)[C@H](C)O2)c2c(cc3c(c2O)C(=O)c2c(O)cccc2C3=O)[C@H]1C(=O)OC [ACM, Aclacinomycin] |  |  |  |  |  | Erhöhung | ~2.3 | 2.28 | Adriamycin-Aufnahme in sensitive L1210 Zellen ([1]; result in words, no concentration given): nicht durch Aclacinomycin beeinflußt; zytotoxische Wirkung von Adriamycin auf nicht resistente L1210 Leukämiezellen [3]: nur schwach im Sinne einer additiven Wirkung beeinflußt
CC[C@@]1(O)CCc2c(O)c3c(c(O)c2[C@H]1O)C(=O)c1cccc(O)c1C3=O [gamma-Rhodomycinon] |  |  |  |  | > 100 | vergleichbare |  |  | 
COc1cccc2c1C(=O)c1c(O)c3c(c(O)c1C2=O)C[C@@](O)(C(=O)CO)C[C@@H]3O[C@H]1C[C@H](N)[C@@H](O)[C@H](C)O1 [Epirubicin] |  |  |  |  |  |  | < 1 |  | 
